The subject of the test is MAGI-CCR5 cells, HIV-1 BaL, beta-gal luminescence, 48 h. The experiment in a line: R5 HIV-1 replication inhibitors in MAGI cells, MAGI-CCR5 cells, beta-gal luminescence, 2% serum, set 3 (AID 504352).

Activity calls are given as the source filed them.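 Rule for the calls: active = compounds cutting HIV-1 replication by at least half at any tested dose; inactive = the rest.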

Experimental findings from PubChem BioAssay AID504352 (Southern Research Specialized Biocontainment Screening …, 2011) are described below.

Usually IC50 stands for the concentration that gives 50% inhibition. On to `O=C(O)CCC(C(=O)O)N1C(=O)/C(=C\c2ccco2)SC1=S` (stereo not drawn), for which the IC50 is > 100 µM (inactive).
Next, `COc1ccc(Cn2c(O)cc3nn(-c4nc5ccccc5s4)c(=O)c-3c2C)cc1`: 4.1 µM.
Consider `O=C(O)c1ccc(C2Nc3ccc(S(=O)(=O)Nc4cc(Cl)ccc4Cl)cc3C3C=CCC32)cc1` (stereo not drawn), for which the 50% inhibitory concentration (IC50) was 1.68 µM.
For the molecule `Cc1c2c(=O)n(-c3nc4ccccc4s3)nc-2cc(O)n1Cc1ccncc1`, the 50% inhibitory concentration (IC50) is 4.4 µM.
Turning to `O=C(O)CCCN1C(=O)/C(=C/c2cc3ccccc3o2)SC1=S`, the 50% inhibitory concentration (IC50) was 7.55 µM.
The figure for `COc1cccc(-n2cccc2/C=C2/C(=N)N3C(=NC2=O)SN=C3S(C)(=O)=O)c1` is 37 µM; for `O=C(O)CCCN1C(=O)/C(=C/c2ccc(-c3ccc(Cl)c(Cl)c3)o2)SC1=S` it is 27.4 µM.
The figure for `COc1ccccc1Cn1c(O)cc2nn(-c3nc4ccccc4s3)c(=O)c-2c1C` is 1.9 µM; for `CS(=O)(=O)C1=NSC2=NC(=O)/C(=C\c3cccn3-c3ccc(F)cc3)C(=N)N21` it is 35.1 µM.
`CCOC(=O)C1=C(C)N=c2s/c(=C\c3ccc(OCC(=O)O)cc3)c(=O)n2C1c1ccc(OC)c(OCC)c1` (stereo not drawn): the concentration for half-maximal inhibition (IC50) was 33.6 µM.
`Nc1sc2ccccc2[n+]1Cc1ccc(C(=O)O)cc1`: the IC50 was > 100 µM (inactive).
As for `CCOC(=O)C1=C(c2ccccc2)N=c2s/c(=C\c3ccc(OCC(=O)O)cc3)c(=O)n2C1c1cccc(OC)c1` (stereo not drawn), the half-inhibitory concentration (IC50) was 6.6 µM.
For the molecule `CCOC(=O)C1=C(C)N=c2sc(=Cc3ccc(OCC(=O)O)cc3)c(=O)n2C1c1cc(OC)c(OC)c(OC)c1` (stereo not drawn), the IC50 was > 100 µM (inactive).
As for `O=C(O)CCCN1C(=O)/C(=C\c2ccc(-c3ccc(Br)cc3)o2)SC1=S`, the IC50 is > 100 µM (inactive).
As for `O=C(O)CCCN1C(=O)/C(=C/c2ccc(-c3cccc(C(F)(F)F)c3)o2)SC1=S`, the IC50 is 32.4 µM.
The figure for `COc1ccc(CCn2c(O)cc3nn(-c4nc5ccccc5s4)c(=O)c-3c2C)cc1` is 13.4 µM.
In the case of `CS(=O)(=O)C1=NSC2=NC(=O)/C(=C\c3cccn3-c3cccc(C(F)(F)F)c3)C(=N)N21`, the IC50 is 47.3 µM.
In the case of `CCc1ccc(-n2cccc2/C=C2/C(=N)N3C(=NC2=O)SN=C3S(C)(=O)=O)cc1`, the half-maximal inhibitory concentration (IC50) is 36.2 µM.
For the molecule `CCOC(=O)C1=C(C)N=c2sc(=Cc3ccc(OCC(=O)O)cc3)c(=O)n2C1c1ccc(F)cc1` (stereo not drawn), the half-maximal inhibitory concentration (IC50) is 36.1 µM.
The figure for `Cc1c2c(=O)n(-c3nc4ccccc4s3)nc-2cc(O)n1CCC(C)C` is 2.16 µM.
In the case of `Cc1c2c(=O)n(-c3nc4ccccc4s3)nc-2cc(O)n1CCc1cccs1`, the half-maximal inhibitory concentration (IC50) is 3.98 µM.
Take `CS(=O)(=O)C1=NSC2=NC(=O)/C(=C\c3cccn3-c3ccc(Cl)cc3)C(=N)N21`: the concentration for half-maximal inhibition (IC50) was 41.7 µM.
The figure for `COc1ccccc1NS(=O)(=O)c1ccc2c(c1)C1C=CCC1C(c1ccc(C(=O)O)cc1)N2` (stereo not drawn) is 2.87 µM; for `Cc1c2c(=O)n(-c3nc4ccccc4s3)nc-2cc(O)n1CCc1ccc(O)cc1` it is 2.83 µM.
In the case of `Cc1c2c(=O)n(-c3nc4ccccc4s3)nc-2cc(O)n1Cc1cccnc1`, the half-inhibitory concentration (IC50) was 1.95 µM.
As for `CCOC(=O)C1=C(C)N=c2sc(=Cc3ccc(OCC(=O)O)cc3)c(=O)n2C1c1ccccc1` (stereo not drawn), the IC50 was 43.6 µM.
For `CCOC(=O)C1=C(C)N=c2sc(=Cc3ccc(OCC(=O)O)cc3)c(=O)n2C1c1ccccc1OC` (stereo not drawn), the half-inhibitory concentration (IC50) is 45.1 µM.
The figure for `O=C(O)c1ccc([C@@H]2Nc3ccc(S(=O)(=O)Nc4cccc5ccccc45)cc3[C@@H]3C=CC[C@@H]32)cc1` is 3.71 µM; for `Cc1c2c(=O)n(-c3nc4ccccc4s3)nc-2cc(O)n1Cc1ccccc1Cl` it is 3.68 µM.
As to `Cc1c2c(=O)n(-c3nc4ccccc4s3)nc-2cc(O)n1C1CC1`, the half-maximal inhibitory concentration (IC50) is 0.56 µM.
Turning to `CCc1ccc(-c2ccc(/C=C3\SC(=S)N(CCCC(=O)O)C3=O)o2)cc1`, the IC50 is 3.43 µM.
The figure for `COc1cccc(C2C(C(=O)Nc3ccccc3)=C(C)N=c3sc(=Cc4ccc(OCC(=O)O)cc4)c(=O)n32)c1` (stereo not drawn) is 55.4 µM.
For `O=C(O)CCCN1C(=O)/C(=C\c2ccc(-c3ccc(Cl)cc3)o2)SC1=S`, the concentration for half-maximal inhibition (IC50) was 2.88 µM.
Next, `CS(=O)(=O)C1=NSC2=NC(=O)/C(=C\c3cccn3-c3cccc(Cl)c3)C(=N)N21`: 52.1 µM; `Cc1ccc(-c2ccc(/C=C3\SC(=S)N(CCCC(=O)O)C3=O)o2)cc1`: 10.9 µM.
The figure for `CS(=O)(=O)C1=NSC2=NC(=O)/C(=C\c3cccn3-c3ccc(Cl)c(Cl)c3)C(=N)N21` is 42.1 µM; for `CCOC(=O)C1=C(C)N=c2s/c(=C\c3ccc(OCC(=O)O)cc3)c(=O)n2C1c1ccc(Cl)cc1` (stereo not drawn) it is 38.1 µM; for `Cc1c2c(=O)n(-c3nc4ccccc4s3)nc-2cc(O)n1Cc1ccc(F)cc1` it is 3.89 µM.
`COc1ccc(-n2cccc2/C=C2/C(=N)N3C(=NC2=O)SN=C3S(C)(=O)=O)cc1Cl`: the IC50 is 32.1 µM.
As for `Cc1ccc(-n2cccc2/C=C2/C(=N)N3C(=NC2=O)SN=C3S(C)(=O)=O)cc1C`, the IC50 is 36.1 µM.
The figure for `CCOc1ccc(-n2cccc2/C=C2/C(=N)N3C(=NC2=O)SN=C3S(C)(=O)=O)cc1` is 24.3 µM; for `CS(=O)(=O)C1=NSC2=NC(=O)/C(=C\c3cccn3-c3cccc(F)c3)C(=N)N21` it is 38.9 µM; for `Cc1ccc(-n2cccc2/C=C2/C(=N)N3C(=NC2=O)SN=C3S(C)(=O)=O)cc1` it is 35.1 µM.
Next, `O=C(O)CCCN1C(=O)/C(=C\c2ccc(-c3ccc(F)cc3)o2)SC1=S`: 37 µM; `CS(=O)(=O)C1=NSC2=NC(=O)/C(=C\c3cccn3-c3ccc(Br)cc3)C(=N)N21`: 43.5 µM.
The figure for `O=C(O)CCCN1C(=O)/C(=C\c2ccc(-c3cccc(Cl)c3)o2)SC1=S` is 15.2 µM.
As for `CS(=O)(=O)C1=NSC2=NC(=O)/C(=C\c3cccn3-c3cc(Cl)cc(Cl)c3)C(=N)N21`, the IC50 was 33.7 µM.
Next, `CCOC(=O)C1=C(C)N=c2sc(=Cc3ccc(OCC(=O)O)cc3)c(=O)n2C1c1ccc(OC)cc1OC` (stereo not drawn): 44.7 µM.
The figure for `Cc1c2c(=O)n(-c3nc4ccccc4s3)nc-2cc(O)n1Cc1cccs1` is 2.27 µM; for `CC1=C(C(=O)OC(C)C)C(c2ccc(Cl)cc2)n2c(s/c(=C\c3ccc(OCC(=O)O)cc3)c2=O)=N1` (stereo not drawn) it is > 100 µM (inactive).
Next, `COc1ccc(-c2ccc(/C=C3\SC(=S)N(CCCC(=O)O)C3=O)o2)cc1`: 56.5 µM.
Turning to `O=C(O)c1ccc(C[n+]2c(-c3ccccc3)csc2Nc2ccccc2)cc1`, the IC50 was 49.5 µM.
The figure for `O=C(O)c1ccc(C[n+]2c(-c3ccc([N+](=O)[O-])cc3)csc2Nc2ccccc2)cc1` is 15 µM.
